{
  "source": "patent US11717508B2",
  "about": "“Compounds, compositions, and methods for inhibiting bacterial growth” (priority 2016, dated 2023)",
  "key": {"CDC1551(ΔdosR) mutant": {"tested_on": "CDC1551(ΔdosR) mutant", "format": "cell-based", "settings": "for log2 Fold change: DosR mutant, HC101A vs DMSO; for Counts per million (CPM): DosR mutant treated with HC101A, replicates 1, 2"}, "[1]": {"tested_on": "DosR-regulated genes (dosR, hspX and tgs1)", "format": "cell-based, Mycobacterium tuberculosis"}, "DosS": {"tested_on": "DosS", "format": "biochemical, Mycobacterium tuberculosis"}, "DosT": {"target": "DosT (Mycobacterium tuberculosis, UniProt P9WGK1, G115L)", "format": "biochemical"}},
  "note": "Where “and” joins values, the source holds several entries; their conditions need not be identical. Identical values can stand only once. Like-named read-outs stand apart in the source and are kept apart here.",
  "data": [
    {"smiles": "C[C@@H]1CC[C@H]2[C@@H](C)C(=O)O[C@@H]3O[C@]4(C)CC[C@@H]1[C@]32OO4", "note": "[HC101A, artemisinin, reference compound]", "values": [
      {"measurement": "log2 Fold change", "setting": "CDC1551(ΔdosR) mutant; gene MT1775", "value": "−1.012"},
      {"measurement": "log2 Fold change", "setting": "CDC1551(ΔdosR) mutant; gene MT1836 Rv1787 PPE", "value": 1.847},
      {"measurement": "Counts per million (CPM)", "setting": "CDC1551(ΔdosR) mutant; gene MT1854 Rv1804c", "value": "12.83 CPM and 20.46 CPM"},
      {"measurement": "log2 Fold change", "setting": "CDC1551(ΔdosR) mutant; gene MT1854 Rv1804c", "value": "−1.101"},
      {"measurement": "log2 Fold change", "setting": "CDC1551(ΔdosR) mutant; gene MT1893 Rv1845c", "value": 1.059},
      {"measurement": "Counts per million (CPM)", "setting": "CDC1551(ΔdosR) mutant; gene MT1922 Rv1873", "value": "11.35 CPM and 17.72 CPM"},
      {"measurement": "log2 Fold change", "setting": "CDC1551(ΔdosR) mutant; gene MT1922 Rv1873", "value": "−1.314"},
      {"measurement": "Counts per million (CPM)", "setting": "CDC1551(ΔdosR) mutant; gene MT1969 Rv1918c PPE", "value": "90.23 CPM and 98.57 CPM"},
      {"measurement": "log2 Fold change", "setting": "CDC1551(ΔdosR) mutant; gene MT1969 Rv1918c PPE", "value": "−1.009"},
      {"measurement": "Counts per million (CPM)", "setting": "CDC1551(ΔdosR) mutant; gene MT2040 Rv1986", "value": "79.07 CPM and 31.42 CPM"},
      {"measurement": "log2 Fold change", "setting": "CDC1551(ΔdosR) mutant; gene MT2040 Rv1986", "value": "−2.384"},
      {"measurement": "log2 Fold change", "setting": "CDC1551(ΔdosR) mutant; gene MT2126 Rv2066 cobl", "value": 1.049},
      {"measurement": "Counts per million (CPM)", "setting": "CDC1551(ΔdosR) mutant; gene MT2166 Rv2107 PE", "value": "25.86 CPM and 35.24 CPM"},
      {"measurement": "log2 Fold change", "setting": "CDC1551(ΔdosR) mutant; gene MT2166 Rv2107 PE", "value": "−1.899"},
      {"measurement": "Counts per million (CPM)", "setting": "CDC1551(ΔdosR) mutant; gene MT2167 Rv2108 PPE", "value": "31.6 CPM and 38.76 CPM"},
      {"measurement": "log2 Fold change", "setting": "CDC1551(ΔdosR) mutant; gene MT2167 Rv2108 PPE", "value": "−1.672"},
      {"measurement": "Counts per million (CPM)", "setting": "CDC1551(ΔdosR) mutant; gene MT2168", "value": "9.545 CPM and 9.201 CPM"},
      {"measurement": "log2 Fold change", "setting": "CDC1551(ΔdosR) mutant; gene MT2168", "value": "−1.358"},
      {"measurement": "log2 Fold change", "setting": "CDC1551(ΔdosR) mutant; gene MT2264 Rv2208 cobS", "value": 1.264},
      {"measurement": "Counts per million (CPM)", "setting": "CDC1551(ΔdosR) mutant; gene MT2278 Rv2220 glnA1", "value": "635.9 CPM and 701.1 CPM"},
      {"measurement": "log2 Fold change", "setting": "CDC1551(ΔdosR) mutant; gene MT2278 Rv2220 glnA1", "value": "−1.188"},
      {"measurement": "Counts per million (CPM)", "setting": "CDC1551(ΔdosR) mutant; gene MT2284 Rv2225 panB", "value": "197.5 CPM and 213.5 CPM"},
      {"measurement": "log2 Fold change", "setting": "CDC1551(ΔdosR) mutant; gene MT2284 Rv2225 panB", "value": "−1.005"},
      {"measurement": "Counts per million (CPM)", "setting": "CDC1551(ΔdosR) mutant; gene MT2304 Rv2244 acpM", "value": "831.8 CPM and 1,835.61 CPM"},
      {"measurement": "log2 Fold change", "setting": "CDC1551(ΔdosR) mutant; gene MT2304 Rv2244 acpM", "value": "−1.454"},
      {"measurement": "Counts per million (CPM)", "setting": "CDC1551(ΔdosR) mutant; gene MT2305 Rv2245 kasA", "value": "1,175.19 CPM and 2,060.94 CPM"},
      {"measurement": "log2 Fold change", "setting": "CDC1551(ΔdosR) mutant; gene MT2305 Rv2245 kasA", "value": "−1.196"},
      {"measurement": "Counts per million (CPM)", "setting": "CDC1551(ΔdosR) mutant; gene MT2306", "value": "704.1 CPM and 1,234.02 CPM"},
      {"measurement": "log2 Fold change", "setting": "CDC1551(ΔdosR) mutant; gene MT2306", "value": "−1.017"},
      {"measurement": "Counts per million (CPM)", "setting": "CDC1551(ΔdosR) mutant; gene MT2391 Rv2329c narK1", "value": "72.04 CPM and 74 CPM"},
      {"measurement": "log2 Fold change", "setting": "CDC1551(ΔdosR) mutant; gene MT2391 Rv2329c narK1", "value": "−1.058"},
      {"measurement": "Counts per million (CPM)", "setting": "CDC1551(ΔdosR) mutant; gene MT2417", "value": "8.836 CPM and 16.05 CPM"},
      {"measurement": "log2 Fold change", "setting": "CDC1551(ΔdosR) mutant; gene MT2417", "value": "−1.114"},
      {"measurement": "Counts per million (CPM)", "setting": "CDC1551(ΔdosR) mutant; gene MT2503 Rv2428 ahpC", "value": "372.7 CPM and 897.9 CPM"},
      {"measurement": "log2 Fold change", "setting": "CDC1551(ΔdosR) mutant; gene MT2503 Rv2428 ahpC", "value": "−1.173"},
      {"measurement": "Counts per million (CPM)", "setting": "CDC1551(ΔdosR) mutant; gene MT2504 Rv2429 ahpD", "value": "163.9 CPM and 315.8 CPM"},
      {"measurement": "Counts per million (CPM)", "setting": "CDC1551(ΔdosR) mutant; gene MT2506", "value": "236.2 CPM and 203 CPM"},
      {"measurement": "log2 Fold change", "setting": "CDC1551(ΔdosR) mutant; gene MT2506", "value": "−1.06"},
      {"measurement": "Counts per million (CPM)", "setting": "CDC1551(ΔdosR) mutant; gene MT2526 Rv2450c", "value": "892.4 CPM and 239.7 CPM"},
      {"measurement": "log2 Fold change", "setting": "CDC1551(ΔdosR) mutant; gene MT2526 Rv2450c", "value": "−1.032"},
      {"measurement": "log2 Fold change", "setting": "CDC1551(ΔdosR) mutant; gene MT2615 Rv2540c aroF", "value": 1.402},
      {"measurement": "log2 Fold change", "setting": "CDC1551(ΔdosR) mutant; gene MT2631", "value": 1.063},
      {"measurement": "Counts per million (CPM)", "setting": "CDC1551(ΔdosR) mutant; gene MT2698 Rv2623", "value": "41.08 CPM and 44.83 CPM"},
      {"measurement": "log2 Fold change", "setting": "CDC1551(ΔdosR) mutant; gene MT2698 Rv2623", "value": "−1.072"},
      {"measurement": "Counts per million (CPM)", "setting": "CDC1551(ΔdosR) mutant; gene MT2778 Rv2705c", "value": "45.21 CPM and 56.67 CPM"},
      {"measurement": "log2 Fold change", "setting": "CDC1551(ΔdosR) mutant; gene MT2778 Rv2705c", "value": "−1.01"},
      {"measurement": "Counts per million (CPM)", "setting": "CDC1551(ΔdosR) mutant; gene MT2849 Rv2779c", "value": "26.89 CPM and 12.92 CPM"},
      {"measurement": "log2 Fold change", "setting": "CDC1551(ΔdosR) mutant; gene MT2849 Rv2779c", "value": "−1.668"},
      {"measurement": "Counts per million (CPM)", "setting": "CDC1551(ΔdosR) mutant; gene MT2850 Rv2780 ald", "value": "1,263.03 CPM and 369.1 CPM"},
      {"measurement": "log2 Fold change", "setting": "CDC1551(ΔdosR) mutant; gene MT2850 Rv2780 ald", "value": "−1.861"},
      {"measurement": "log2 Fold change", "setting": "CDC1551(ΔdosR) mutant; gene MT2863 Rv2794c", "value": 1.021},
      {"measurement": "Counts per million (CPM)", "setting": "CDC1551(ΔdosR) mutant; gene MT3065 Rv2987c leuD", "value": "140.2 CPM and 20.16 CPM"},
      {"measurement": "log2 Fold change", "setting": "CDC1551(ΔdosR) mutant; gene MT3065 Rv2987c leuD", "value": "−1.094"},
      {"measurement": "log2 Fold change", "setting": "CDC1551(ΔdosR) mutant; gene MT3110 Rv3026c", "value": 1.612},
      {"measurement": "Counts per million (CPM)", "setting": "CDC1551(ΔdosR) mutant; gene MT3118 Rv3033", "value": "22.06 CPM and 33.57 CPM"},
      {"measurement": "Counts per million (CPM)", "setting": "CDC1551(ΔdosR) mutant; gene MT3132", "value": "35.54 CPM and 21.04 CPM"},
      {"measurement": "log2 Fold change", "setting": "CDC1551(ΔdosR) mutant; gene MT3132", "value": "−1.912"},
      {"measurement": "log2 Fold change", "setting": "CDC1551(ΔdosR) mutant; gene MT3133 Rv3048c nrdG", "value": "−2.008"},
      {"measurement": "log2 Fold change", "setting": "CDC1551(ΔdosR) mutant; gene MT3134 Rv3049c", "value": "−2.181"},
      {"measurement": "log2 Fold change", "setting": "CDC1551(ΔdosR) mutant; gene MT3178 Rv3094c", "value": "−1.319"},
      {"measurement": "log2 Fold change", "setting": "CDC1551(ΔdosR) mutant; gene MT3293 Rv3199c", "value": 1.039},
      {"measurement": "log2 Fold change", "setting": "CDC1551(ΔdosR) mutant; gene MT3327 Rv3230c", "value": 1.145},
      {"measurement": "log2 Fold change", "setting": "CDC1551(ΔdosR) mutant; gene MT3441 Rv3338", "value": "−1.641"},
      {"measurement": "log2 Fold change", "setting": "CDC1551(ΔdosR) mutant; gene MT3481 Rv3371", "value": "−1.101"},
      {"measurement": "log2 Fold change", "setting": "CDC1551(ΔdosR) mutant; gene MT3498 Rv3391 acrA1", "value": "−1.036"},
      {"measurement": "log2 Fold change", "setting": "CDC1551(ΔdosR) mutant; gene MT3581 Rv3477 PE", "value": "−1.558"},
      {"measurement": "log2 Fold change", "setting": "CDC1551(ΔdosR) mutant; gene MT3591 Rv3487c lipF", "value": "−1.301"},
      {"measurement": "log2 Fold change", "setting": "CDC1551(ΔdosR) mutant; gene MT3947 Rv3839", "value": "−1.144"},
      {"measurement": "log2 Fold change", "setting": "CDC1551(ΔdosR) mutant; gene MT3963 Rv3848", "value": "−1.017"},
      {"measurement": "log2 Fold change", "setting": "CDC1551(ΔdosR) mutant; gene MT3969 Rv3854c", "value": "−2.018"},
      {"measurement": "log2 Fold change", "setting": "CDC1551(ΔdosR) mutant; gene MT3970 Rv3855", "value": "−1.5"},
      {"measurement": "log2 Fold change", "setting": "CDC1551(ΔdosR) mutant; gene MT3976 Rv3862c", "value": "−1.387"},
      {"measurement": "log2 Fold change", "setting": "CDC1551(ΔdosR) mutant; gene MT3978 Rv3864", "value": "−1.324"},
      {"measurement": "log2 Fold change", "setting": "CDC1551(ΔdosR) mutant; gene MT3988 Rv3874", "value": "−1.066"},
      {"measurement": "log2 Fold change", "setting": "CDC1551(ΔdosR) mutant; gene MT3989 Rv3875 esat6", "value": "−1.043"},
      {"measurement": "resistance to artemisinin of DosT (G115L) vs WT DosT or DosT (G85L)", "setting": "[1]", "value": "~5", "unit": "fold"},
      {"measurement": "oxidation of DosS (E87L) and DosS (G117L) proteins by artemisinin", "setting": "DosS", "value": "resistant to oxidation"},
      {"measurement": "response of DosT (G115L) protein to artemisinin", "setting": "DosT", "value": "exhibits artemisinin resistance"}
    ]}
  ]
}
